The conditions of data set [1]: reported by Rettie, J. Biol. Chem. 263(27):13733-13738 (1988); cited from earlier work.
Data set [2] deals with C57BL/6 wild type mice. In words: Excessive bleeding assay (tail bleeding time). The settings on record: tail resection 5 mm, 100 mg/kg IP once a day for five days, compared to control (FIG. 1). The class given is in vivo. The procedure:
To determine the risks of excessive bleeding associated with the compounds of the present invention, the last 5 mm of the tail of mice was resected to identify the amount of time necessary for the vessel to properly clot and prevent excessive loss of blood.
10-12 weeks old C57BL/6 wild type mice were purchased from Jackson Laboratories for these experiments. Various compounds were administered to the mice via IP injection once a day at a dose of 100 mg/kg of compound for five days prior to resection.
Mice were sedated with 250 μL of ketamine solution (Ketamine (100 μL)/xylazine (50 μL) in 850 μl. Saline solution). The mice were then placed face down on a heat pad on top of the bead bath to enable the tail to be pulled into a saline-filled tube. 5 mm of the tail as cut with a scalpel and the tail was placed in a saline-filled tube and a timer started. The timer was stopped when the bleeding stopped, but the possibility of re-bleeds was observed from 10 minutes after initial bleeding stopped. If the mouse bleeds continuously for 10 minutes, the experiment was halted and the mouse was euthanized. One-way ANOVA with Dunnett's correction for multiple comparison test was performed to determine statistical significance of bleeding times.

The subject of data set [3] is C57BL/6 wild type mice. In words: Cremaster laser-induced thrombosis assay (platelet accumulation, fibrin formation). In kind it is in vivo. The settings on record: cremaster arteriole laser-induced injury. The procedure:
The effects of the compounds of the invention and VPA on the ability and timing of clot formation were determined. Specifically, platelet accumulation and fibrin formation in the cremaster artery in forming a non-occlusive clot were measured following laser-induced insult to the vessel in 10-12 week-old mice (C57BL/6 wild type mice purchased from Jackson Laboratories).
Valproic acid (VPA) was purchased from Sigma-Aldrich as a powder and resuspended in 0.9% Sodium Chloride (saline) to prepare a final stock solution of each compound.
To assess platelet accumulation and fibrin formation, a Zeiss Axio Examiner Z1 fluorescent multichannel intravital microscope was used. The microscope was equipped with: (1) a solid laser launch system (LaserStack; Ablate! Photoablation system, intelligent Imaging innovations), (2) a high-speed sCMOS camera, and (3) a laser ablation system (intelligent Imaging innovations, Denver, CO, USA). SlideBook 6.0 digital microscopy software for image recording and analysis was also used. An anti-platelet antibody, and an anti-fibrin antibody, both commercially available, were used for imaging purposes.
The dynamic accumulation of platelets and fibrin within thrombi at the site of the injury in vivo was evaluated in cremaster arteriole in response to laser-induced injury under intravital microscopy. Adult male mice (10-12 weeks old) were treated with 30 mg/kg and 100 mg/kg for 5 days prior to injury were anesthetized by an intraperitoneal injection of ketamine/xylazine (100 and 10 mg/kg, respectively) and the jugular vein was cannulated. A tracheal tube was inserted to facilitate breathing. The cremaster arteriole was surgically prepared and superfused with preheated bicarbonate saline buffer throughout the experiment.
DyLight 488-conjugated rat anti-mouse platelet GP1bβ antibody (0.1 μg/g; EMFRET Analytics) and Alexa Fluor 647-conjugated anti-fibrin (0.3 μg/g) were administered intravenously via a jugular vein cannula prior to vascular injury. Microcirculation was monitored and recorded under multichannel intravital microscopy.
Multiple independent thrombi (6-8 thrombi in each mouse) were induced in the arterioles (30-50 μm diameter) in each mouse by a laser ablation system. Images of thrombus formation at the site of injured arterioles were acquired in realtime under 63× water-immersion objective with a Zeiss Axio Examiner Z1 fluorescent microscope equipped with solid laser launch system (LaserStack; Intelligent Imaging Innovations) and high-speed sCMOS camera. All captured images were analyzed for the change of fluorescent intensity over the course of thrombus formation after subtracting fluorescent background using the Slidebook program. […]

[4] abbreviates: 100 mg/kg IP for 5 days, versus VPA (FIG. 4).

Regarding `[2H]C([2H])([2H])CCC(CCC([2H])([2H])[2H])C(=O)O` [5,5,5,5′,5′,5′D6VPA], the “formation of the 4-ene-VPA metabolite compared to VPA” value in data set [1] is listed as “increased amount of the 4-ene-VPA metabolite”. In the case of `CCCC(CCC)C(=O)O` [VPA, Valproic acid], in the data set on C57BL/6 wild type mice [2], the bleeding time entry was “significant increase in bleeding time”. Consider `[2H]C([2H])(C)CC(CC([2H])([2H])C)C(=O)O` [4,4,4′,4′-D4VPA], for which the “formation of the 4-ene-VPA metabolite compared to VPA” value in data set [1] is “considerably less formation of the 4-ene metabolite”. Turning to `[2H]C([2H])C([2H])([2H])CC([2H])(CC([2H])([2H])C([2H])[2H])C(=O)O` [Compound Ib, 2-(Propyl-2,2,3,3-d4)pentanoic-2,4,4,5,5-d5 acid], in the data set on C57BL/6 wild type mice [3] (setting [4]), the platelet accumulation entry is listed as “consistent decrease in platelet accumulation over VPA”. Turning to `[2H]C([2H])C([2H])([2H])CC(CC([2H])([2H])C([2H])[2H])C(=O)O` [Compound Ia, 2-[(2,2,3,3-2H4)propyl](4,4,5,5-2H4)pentanoic acid], the platelet accumulation entry in the data set with C57BL/6 wild type mice [3] (30 mg/kg IP for 5 days, versus VPA (FIG. 2)) is on record as “consistent decrease”; with C57BL/6 wild type mice [3] (setting [4]), “consistent decrease in platelet accumulation over VPA”. Besides, in the data set on C57BL/6 wild type mice [3] (30 mg/kg IP for 5 days, versus VPA (FIG. 3)), the fibrin formation result was “consistent decrease”. Further, the bleeding time result in the data set on C57BL/6 wild type mice [2] is recorded as “best safety profile in terms of risk of excess bleeding”.

These data come from patent US20250066282A1, “NOVEL ANALOGS OF VALPROIC ACID AND METHODS OF MEDICAL TREATMENT USING THE SAME” (Cereno Scientific AB, priority 2021, published 2025).
